Reference: patent US8273797B2, “Treating renal cancer using 4-[bis[2-[(methylsulfonyl)oxy]ethyl]amino]-2-methyl-benzaldehyde” (The United States of America, as represented by the …, priority 2005, dated 2012)
Several values for one entry are separate records, joined by “and”; a condition that tells them apart may be missing. Equal values may be shown once. Entries after “also recorded” stand apart in the source; their conditions may differ.

Assays:
[1] = tested on: xenograft; conditions: mouse, in vivo; cited from earlier work
[2] = tested on: RCC tumor cell lines; conditions: cited from earlier work
[3] = tested on: RXF-393 human renal tumor cells; test: Orthotopic intrarenal RXF-393 tumor model; assay type: in vivo, mice; conditions: for Median Tumor Weight (mg, Day 23) / T/C (%) / Median Tumor Weight (mg, Day 27): Rt. IV
[4] = tested on: Dunning rat leukemia; conditions: Elderfield, private communication; no specific data disclosed; cited from earlier work
[5] = Toxicity (mortality, body weight loss, tolerability) in mice bearing intrarenal RXF-393 tumors; assay type: in vivo
Experimental: (§1) Intraperitoneal drug treatment schedules were established from the tumor doubling times because pharmacological data were not available. The dose levels were determined by establishing a single injection maximum tolerated dose (MTD) from which the experimental doses were calculated as: dose (mg/kg)=[(1.5×MTD)/no. of doses to be given]. Each experiment consisted of 20 control mice (based on statistical need) that received dosing vehicle (saline+0.05% Tween 80) on the same schedule as used for the test articles. Each treated group contained six mice. Tumor volumes were measured two to three times weekly and the tumor weights were calculated using the formula for a prolate ellipsoid: tumor weight (mg)={[length (in mm)]×[width (in mm)]^2}/2. The control tumors reached 500 mm^3 in 27 days for A498 and 12 days for RXF-393.
RXF-393 cells were injected directly into the caudal pole of the kidney on Day 0. The inoculated kidney was monitored for tumor growth in treated versus control mice by collecting and weighing the kidneys on day 25 post-implantation. In a preliminary experiment, NSC-281612 was administered intraperitoneally (IP) every fourth day for a total of 5 treatments (Q4D×5) starting 4 days after tumor implantation. […] In this study, NSC-281612 was assessed at 25 mg/kg (Group 2), 16.8 mg/kg (Group 3) and 11.3 mg/kg (Group 4). Due to toxicity, the 25 mg/kg dose was lowered to 8.3 mg/kg and only 4 doses were administered to Groups 2 and 3 (see Table 1).
To assess the impact of drug administration route, an experiment was conducted in which NSC-281612 was administered at doses of 8 mg/kg, 4 mg/kg and 2 mg/kg given intravenously (IV) on a Q4D×5 schedule with the first treatment given on day 4 post-tumor implantation. […] See, Table 2 for results and FIG. 6 for individual renal tumor weights for mice administered control only (vehicle), 8 mg/kg, 4 mg/kg, or 2 mg/kg intravenously on a Q4D×5 schedule.

[6] = tested on: A498 human renal tumor xenografts; test: Subcutaneous A498 xenograft tumor model; assay type: in vivo, athymic nude mice; conditions: NSC-281612 54 mg/kg Q4Dx3 from day 4 post implantation, compared with NSC-281817 120 mg/kg
Experimental: Tumor cells (e.g., A498 and RXF-393) were derived from established tumors maintained by serial passage in mice for a maximum of 10 passages. […] Male mice were used in all experiments. All animals were provided by NCI contractors at the NCI-Frederick production facility or Taconic Laboratories (Germantown, N.Y.).
as §1
Human tumor xenografts were generated by injection of 1×10^7 A498 tumor cells subcutaneously into athymic nude male mice. […] The tumor weight was calculated every fourth day beginning at day 7. […]

[7] = 2 mg/kg/dose IV Q4Dx5 from day 4
[8] = 4 mg/kg/dose IV Q4Dx5 from day 4
[9] = 8 mg/kg/dose IV Q4Dx5 from day 4
[10] = Group 2: 25 mg/kg Q4Dx3 and a final dose of 8.3 mg/kg IP

## Cc1cc(N(CCOS(C)(=O)=O)CCOS(C)(=O)=O)ccc1C=Nc1ccc(-c2csc(-c3ccccc3)n2)c(Cl)c1 [compound 281613]
[1]
  antitumor activity in xenograft-bearing mice: only modest
[2]
  in vitro activity against RCC tumor cell lines: having in vitro activity

## Cc1cc(N(CCOS(C)(=O)=O)CCOS(C)(=O)=O)ccc1C=O [NSC-281612, 4-[bis[2-[(methylsulfonyl)oxy]ethyl]amino]-2-methyl-benzaldehyde]
[3]; 2 mg/kg/dose IV Q4Dx5
  reduction in tumor mass: did not achieve a level of statistical significance
[3]; [7]
  Day 22 Tumor Weight average: 270 mg
  Day 22 Tumor Weight median: 284 mg
[3]; 3.4 mg/kg/dose, QDx5, D5
  Median Tumor Weight (mg, Day 23): 11.5 mg
[3]; 3.4 mg/kg/dose, QDx5, D5, Day 23
  T/C (%): 3%
[3]; [8]
  Day 22 Tumor Weight average: 31 mg
  Day 22 Tumor Weight median: 7 mg
[3]; 5 mg/kg/dose IP Q4Dx5
  tumor free animals: no tumor free animals
  tumor mass compared to the controls: significant reduction in tumor mass
[3]; 5 mg/kg/dose, QDx5, D5
  Median Tumor Weight (mg, Day 23): 0 mg
[3]; 5 mg/kg/dose, QDx5, D5, Day 23
  T/C (%): 0%
[3]; 7.5 mg/kg/dose, QDx5, D5
  Median Tumor Weight (mg, Day 23): 0 mg
[3]; 7.5 mg/kg/dose, QDx5, D5, Day 23
  T/C (%): 0%
[3]; [9]
  Day 22 Tumor Weight average: 1 mg
  Day 22 Tumor Weight median: 0 mg
[3]; 8 mg/kg/dose and 4 mg/kg/dose IV Q4Dx5
  reduction in tumor weights: statistically significant reductions in the tumor weights
[3]; 25 mg/kg/dose, QDx1, D1O
  Median Tumor Weight (mg, Day 27): 0 mg
[3]; 25 mg/kg/dose, QDx1, D1O, Day 27
  T/C (%): 0%
[3]; 25 mg/kg/dose, QDx1, D5
  Median Tumor Weight (mg, Day 27): 340 mg
[3]; 25 mg/kg/dose, QDx1, D5, Day 27
  T/C (%): 94%
[3]; 25 mg/kg/dose, QDx1, D15
  Median Tumor Weight (mg, Day 27): 1 mg
[3]; 25 mg/kg/dose, QDx1, D15, Day 27
  T/C (%): 0%
[3]; IP Q4Dx5 starting day 4, 25, 16.8 and 11.3 mg/kg (Groups 2-4)
  tumor burden at day 25 post-implantation: markedly reduced the tumor burden; also recorded: active against intrarenal RXF-393 tumors at several doses
[3]; daily dose for five sequential days, doses as low as 3.4 mg/kg/dose
  decrease in tumor weight: statistically significant decrease in tumor weight
[3]; single 25 mg/kg dose on day 5 post-tumor implantation
  efficacy of single dose: ineffective
[3]; single 25 mg/kg dose on day 10 or 15 post-tumor implantation
  animals with no detectable tumor: seven often
[4]
  activity against Dunning rat leukemia: possesses activity against Dunning rat leukemia
[5]; 8, 4 and 2 mg/kg IV Q4Dx5 from day 4
  tolerability: well tolerated
[5]; [10]
  average weight loss: 27%
  mortality: no mortality
[5]; Group 3: 16.8 mg/kg Q4Dx5 IP, 16.8 mg/kg
  mortality: no mortality and 16.8 mg NSC-281612/kg Q4Dx5 IP. There was no mortality
[5]; Group 4: 11.3 mg/kg Q4Dx5 IP, 11.3 mg/kg
  mortality: no mortality and 11.3 mg NSC-281612/kg Q4Dx5 IP. There was no mortality
[6]
  median tumor weight (effectiveness in limiting tumor weight): at least as effective in limiting tumor weight as NSC-281617

## CS(=O)(=O)OCCN(CCOS(C)(=O)=O)c1ccc(C=Nc2ccc(-c3csc(COc4ccccc4)n3)cc2)cc1 [compound 280074]
[1]
  antitumor activity in xenograft-bearing mice: only modest
[2]
  in vitro activity against RCC tumor cell lines: having in vitro activity

## Cc1cc(N(CCOS(C)(=O)=O)CCOS(C)(=O)=O)ccc1C=Nc1ccc(-c2nc(Cc3ccccc3)sc2C)cc1 [NSC-281817]
[1]
  antitumor activity in xenograft-bearing mice: only modest
[2]
  in vitro activity against RCC tumor cell lines: having in vitro activity
